Converted amounts (≈) assume the structure as drawn. Like-named read-outs stand apart in the source and are kept apart here. Residues, ends and D or L forms follow the SMILES beside them. No end group written: not given here.
How the values were obtained:
S. aureus ATCC 33592 = format: cell-based, Staphylococcus aureus
Method: (§1) The strains that were used in this study (Table 2 and Table S1) were cultivated at 37 °C in cation-adjusted Mueller–Hinton broth (CAMB) in Erlenmeyer flasks, or on the same medium with agar in Petri dishes. Exceptionally, Mycobacterium smegmatis was cultivated at 37 °C in brain heart infusion (BHI) medium that was supplemented with 1% Tween-80 in Erlenmeyer flasks, or on the same medium lacking detergent but with agar in Petri dishes. Strains listed with Robert Koch Institute (RKI) strain numbers are clinical isolates from the RKI strain collection originating from hospitalized patients in Germany. The remaining strains originated from the Sanofi strain collection and they were originally purchased from the American Type Culture Collection or the German Collection of Microorganisms and Cell Cultures. Meropenem/colistin-resistant strains were maintained, as described above, with the appropriate antibiotic added at levels below the minimal inhibitory concentration (MIC).
(§2) The MIC values were determined in 384-well microtiter plates with an assay volume of 20 µL. Immediately before each assay, the cultures of test organisms (bacteria grown for 18 h, Candida albicans and M. smegmatis grown for 48 h) were diluted with the appropriate medium to a density of 1 × 10^6 cells/mL (C. albicans), 1 × 10^5 cells/mL (M. smegmatis) or 5 × 10^5 cells per mL (other species). […] We transferred 2-µL aliquots from this dilution series to new 384-well microtiter plates while using a CyBio-Well 384-channel automated pipettor (Analytic Jena, Jena, Germany) and added 18 µL of the diluted suspension of each test species using a Viafill reagent dispenser (Integra), thus reducing the final peptide concentration 10-fold to the range 1024–0.03125 µg/mL. […] The growth of M. smegmatis was measured using the BacTiter-Glo luminescence test system (Promega, Madison, WI, USA). The growth of the other species was determined by visual inspection of the microtiter plate and turbidimetry based on the optical density at 600 nm (OD600). The MIC was defined as the peptide concentration at which no bacterial growth was observed. We supplemented the test medium with either 150 mM NaCl or 1.25 mM CaCl2 to represent monovalent and divalent cations to simulate physiological conditions.

[1] = tested on: Micrococus luteus DSM 20030; format: cell-based, Micrococcus luteus; conditions: CAMB, 18 h, 37 °C, n = 4
Method: as §1
The MIC values were determined in 384-well microtiter plates with an assay volume of 20 µL. […] The growth of M. smegmatis was measured using the BacTiter-Glo luminescence test system (Promega, Madison, WI, USA). The growth of the other species was determined by visual inspection of the microtiter plate and turbidimetry based on the optical density at 600 nm (OD600). […]

E. coli ATCC 25922 = tested on: E. coli ATCC 25922
Method: as §1
The MIC values were determined in 384-well microtiter plates with an assay volume of 20 µL. Immediately before each assay, the cultures of test organisms (bacteria grown for 18 h, Candida albicans and M. smegmatis grown for 48 h) were diluted with the appropriate medium to a density of 1 × 10^6 cells/mL (C. albicans), 1 × 10^5 cells/mL (M. smegmatis) or 5 × 10^5 cells per mL (other species). The peptides were dissolved in sterile water at a concentration of 10.24 mg/mL and a 1:2 dilution series was prepared in a 384-well microtiter plate to achieve the concentration range 10,240–0.3125 µg/mL in a volume of 50 µL. We transferred 2-µL aliquots from this dilution series to new 384-well microtiter plates while using a CyBio-Well 384-channel automated pipettor (Analytic Jena, Jena, Germany) and added 18 µL of the diluted suspension of each test species using a Viafill reagent dispenser (Integra), thus reducing the final peptide concentration 10-fold to the range 1024–0.03125 µg/mL. The cells were incubated at 37 °C and 85% relative humidity, shaking at 180 rpm for 48 h (M. smegmatis), 24 h (C. albicans) or 18 h (other species). The growth of M. smegmatis was measured using the BacTiter-Glo luminescence test system (Promega, Madison, WI, USA). The growth of the other species was determined by visual inspection of the microtiter plate and turbidimetry based on the optical density at 600 nm (OD600). […] We supplemented the test medium with either 150 mM NaCl or 1.25 mM CaCl2 to represent monovalent and divalent cations to simulate physiological conditions.

Canida albicans FH2173 = format: cell-based, Candida albicans; conditions: CAMB, 24 h, 37 °C, n = 4
Method: as §1, §2

[2] = tested on: Acinetobacter baumannii ATCC 19606; format: cell-based
Method: as §1, §2

[3] = tested on: Enterococcus faecium DSM 17050; format: cell-based; conditions: CAMB, 18 h, 37 °C, n = 4
Method: as §1, §2

[4] = tested on: Klebsiella pneumoniae DSM 30104; format: cell-based
Method: as §1, §2

[5] = tested on: Listeria monocytogenes DSM 20600; format: cell-based; conditions: CAMB, 18 h, 37 °C, n = 4
Method: as §1, §2

[6] = tested on: Mycobacterium smegmatis ATCC 607; format: cell-based; conditions: BHI, 48 h, 37 °C, BacTiter-Glo, n = 4
Method: as §1, §2

[7] = tested on: Proteus mirabilis DSM 4479; format: cell-based; conditions: CAMB, 18 h, 37 °C, n = 4
Method: as §1, §2

[8] = tested on: Pseudomonas aeruginosa ATCC 27853; format: cell-based
Method: as §1, §2

[9] = tested on: Staphylococcus aureus ATCC 25923; format: cell-based
Method: as §1, §2

[10] = tested on: Staphylococcus epidermidis ATCC 35984; format: cell-based; conditions: CAMB, 18 h, 37 °C, n = 4
Method: as §1, §2

E. coli RKI 131/08 = test: microbe, parasite or virus in culture; format: cell-based, Escherichia coli; conditions: RKI 131/08, 18 h
Method: as §1, §2

K. pneumoniae RKI 93/10 = test: microbe, parasite or virus in culture; format: cell-based, Klebsiella pneumoniae; conditions: RKI 93/10, 18 h
Method: as §1, §2

A. baumannii RKI 19/09 = test: microbe, parasite or virus in culture; format: cell-based, Acinetobacter baumannii; conditions: RKI 19/09, 18 h
Method: as §1, §2

Escherichia coli D31 = format: cell-based; conditions: D31, 18 h
Method: as §1, §2

HepG2 cells = test: Cytotoxicity (ATP quantification and neutral red uptake)
Method: The cytotoxicity of the AMPs was determined in 96-well microtiter plates with an assay volume of 200 µL. The peptides were dissolved in PBS and a 1:2 dilution series in DMEM-F12 medium (supplemented with 1% nonessential amino acids, 1% sodium pyruvate, and 5% heat-inactivated fetal calf serum) was prepared in nine steps to produce test concentrations of 400, 200, 100, […], 12.5, 6.25, 3.13, and 1.56 μM (1655–6.46 µg/mL for EtCec1-a, 1713–6.68 µg/mL for EtCec2-a, 1622–6.33 µg/mL for EtCec3-a, 2661–10.38 µg/mL for EtDip). Stocks of the mycoplasma-free HepG2 cell line HB-8065 (ATCC) stored in liquid nitrogen were seeded at a density of 20,000 cells/well into 96-well microplates in 100 μL DMEM-F12 supplemented as above. After incubation overnight at 37 ± 1 °C in a 5% CO2 atmosphere, 100 μL of the test solution was added per well in six replicates. Ketoconazole was used as a positive control and PBS as a negative control. The plates were incubated for 24 h, as above, and the cell viability was assessed using the luminescent CellTiter-Glo ATP monitoring kit (Promega) to determine the quantity of ATP.
HepG2 cells and peptides were prepared as described above, and cell viability was assessed based on the ability of lysosomes to store the dye neutral red (Sigma–Aldrich, ST. Louis, MO, USA). The cells were incubated for 3 h with a neutral red solution, washed twice, and lysed. After complete lysis, the quantity of neutral red was determined by measuring the absorption at 540 nm while using a Tecan Genios Pro plate reader.

[11] = target: human ERG (hERG) potassium channel (Homo sapiens, UniProt Q12809); test: cell-based
Sequence of human ERG (hERG) potassium channel (Q12809 whole entry): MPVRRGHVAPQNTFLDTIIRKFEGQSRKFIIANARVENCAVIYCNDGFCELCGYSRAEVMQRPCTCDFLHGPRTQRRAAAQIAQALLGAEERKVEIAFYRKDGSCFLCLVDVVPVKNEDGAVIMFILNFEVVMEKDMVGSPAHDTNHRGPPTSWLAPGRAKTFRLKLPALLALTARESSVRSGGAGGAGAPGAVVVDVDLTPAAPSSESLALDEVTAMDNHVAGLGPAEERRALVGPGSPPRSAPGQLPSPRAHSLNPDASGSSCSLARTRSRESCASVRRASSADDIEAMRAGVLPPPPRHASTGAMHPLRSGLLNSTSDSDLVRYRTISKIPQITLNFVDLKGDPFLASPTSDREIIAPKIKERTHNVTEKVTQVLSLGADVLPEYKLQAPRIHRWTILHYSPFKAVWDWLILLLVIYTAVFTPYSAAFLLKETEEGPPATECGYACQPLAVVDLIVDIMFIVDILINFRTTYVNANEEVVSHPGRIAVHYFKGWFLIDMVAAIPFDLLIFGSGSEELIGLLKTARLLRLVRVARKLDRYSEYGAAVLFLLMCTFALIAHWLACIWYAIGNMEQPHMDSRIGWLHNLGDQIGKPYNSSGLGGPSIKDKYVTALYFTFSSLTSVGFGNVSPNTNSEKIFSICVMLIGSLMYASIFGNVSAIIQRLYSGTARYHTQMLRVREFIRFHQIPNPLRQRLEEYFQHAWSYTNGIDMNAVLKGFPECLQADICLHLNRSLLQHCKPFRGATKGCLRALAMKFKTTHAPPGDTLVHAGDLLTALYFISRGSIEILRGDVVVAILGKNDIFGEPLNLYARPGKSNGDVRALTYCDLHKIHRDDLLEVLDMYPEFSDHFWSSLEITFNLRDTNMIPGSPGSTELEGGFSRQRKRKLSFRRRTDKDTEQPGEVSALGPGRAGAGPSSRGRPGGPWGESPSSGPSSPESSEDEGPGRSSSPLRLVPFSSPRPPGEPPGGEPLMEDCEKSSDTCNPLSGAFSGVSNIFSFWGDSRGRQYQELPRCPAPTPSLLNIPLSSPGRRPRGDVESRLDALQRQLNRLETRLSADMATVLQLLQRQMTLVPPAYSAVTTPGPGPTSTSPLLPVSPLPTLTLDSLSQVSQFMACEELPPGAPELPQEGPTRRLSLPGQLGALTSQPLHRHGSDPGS
Method: The interaction of the peptides with the human ERG (hERG) potassium channel was analyzed using the automated patch-clamp method. Chinese hamster ovary (CHO) hERG Duo cells constitutively expressing hERG (B’SYS) were diluted to 8 × 10^6 cells/mL in Ex-Cell CHO medium (Sigma–Aldrich) containing 25 mM HEPES, 100 U/mL penicillin-streptomycin, and 0.004% soybean trypsin inhibitor. The peptides were diluted from a stock concentration of 10 mM in DMSO to final concentrations of 0.12, 0.37, 1.1, 3.3, 10, and 30 μM (0.5–124 µg/mL for […], 0.51–128 µg/mL for EtCec2-a, 0.49–122 µg/mL for EtCec3-a, 0.8–200 µg/mL for EtDip) in extracellular medium (150 mM NaCl, 4 mM KCl, 2 mM CaCl2, 1 mM MgCl2, 10 mM HEPES, 10 mM glucose) containing 0.06% Pluronic F-68 and 0.3% residual DMSO. The response of hERG to each peptide was assessed while using a QPatch HTX station and QPlates (Sophion/Biolin Scientific, Ballerup, Denmark) by recording the tail current following channel repolarization. Half-maximal inhibitory concentrations (IC50) were determined from a series of six concentrations applied to the cells in ascending order. Terfenadine citrate was used as a positive control and extracellular medium as a negative control.

## CC(C)C[C@@H]1NC(=O)[C@@H]2CSSC[C@@H](C(=O)N[C@@H](CCCNC(=N)N)C(=O)N[C@@H](CCCCN)C(=O)O)NC(=O)[C@H](CC(N)=O)NC(=O)[C@@H]3CSSC[C@H](NC(=O)[C@H](C)NC(=O)[C@H](C)NC(=O)[C@H](CC(=O)O)NC(=O)[C@H](CCCCN)NC(=O)[C@H](C(C)C)NC(=O)[C@H](CC(N)=O)NC(=O)[C@H](CC(C)C)NC(=O)[C@H](Cc4ccccc4)NC(=O)[C@H](CO)NC(=O)[C@H](CC(C)C)NC(=O)[C@H](CC(C)C)NC(=O)[C@H](CC(=O)O)NC(=O)[C@@H](NC(=O)[C@@H](NC(=O)[C@H](C)N)[C@@H](C)O)CSSC[C@H](NC(=O)[C@H](Cc4ccc(O)cc4)NC(=O)CNC(=O)CNC(=O)[C@H](CCCNC(=N)N)NC(=O)[C@H](Cc4ccc(O)cc4)NC(=O)CNC(=O)[C@H](CCCCN)NC(=O)[C@H](C)NC1=O)C(=O)N[C@@H](CC(=O)O)C(=O)NCC(=O)N[C@@H](CCCNC(=N)N)C(=O)N[C@@H](CCCCN)C(=O)N[C@@H](C(C)C)C(=O)N3)C(=O)N[C@@H](C)C(=O)N[C@@H](C)C(=O)N[C@@H](Cc1c[nH]cn1)C(=O)N2 [EtDef4] (HELM PEPTIDE1{A.T.C.D.L.L.S.F.L.N.V.K.D.A.A.C.A.A.H.C.L.A.K.G.Y.R.G.G.Y.C.D.G.R.K.V.C.N.C.R.K}$PEPTIDE1,PEPTIDE1,3:R3-30:R3|PEPTIDE1,PEPTIDE1,16:R3-36:R3|PEPTIDE1,PEPTIDE1,20:R3-38:R3$$$V2.0)
S. aureus ATCC 33592; CAMB, 18 h, 37 °C, n = 4
  MIC: 16 µg/mL (≈ 3.73 µM)
[1]
  MIC: 16 µg/mL (≈ 3.73 µM)
E. coli ATCC 25922; CAMB + A000160918 [4 µg/mL]
  MIC: 32 µg/mL
E. coli ATCC 25922; CAMB + A000161246 [4 µg/mL]
  MIC: 128 µg/mL
E. coli ATCC 25922; CAMB + A000173031A [4 µg/mL]
  MIC: 16 µg/mL
E. coli ATCC 25922; CAMB + A000173033A [4 µg/mL]
  MIC: 256 µg/mL
E. coli ATCC 25922; CAMB + A000173039A [0.25 µg/mL]
  MIC: 64 µg/mL
E. coli ATCC 25922; CAMB + A000173380A [4 µg/mL]
  MIC: 256 µg/mL
E. coli ATCC 25922; CAMB + A000498432A [4 µg/mL]
  MIC: >256 µg/mL
E. coli ATCC 25922; CAMB + A000499933A [0.0625 µg/mL]
  MIC: >256 µg/mL
E. coli ATCC 25922; CAMB + A000500059A [0.0625 µg/mL]
  MIC: >256 µg/mL
E. coli ATCC 25922; CAMB + A000500146A [0.0625 µg/mL]
  MIC: 4 µg/mL
E. coli ATCC 25922; CAMB + A000501181A [4 µg/mL]
  MIC: >256 µg/mL
E. coli ATCC 25922; CAMB + Colistin E1 [0.016 µg/mL]
  MIC: 8 µg/mL
E. coli ATCC 25922; CAMB + Colistin E2 [0.016 µg/mL]
  MIC: 2 µg/mL
E. coli ATCC 25922; CAMB + PMB [0.016 µg/mL]
  MIC: 2 µg/mL
E. coli ATCC 25922; CAMB + PMBN [4 µg/mL]
  MIC: >256 µg/mL
E. coli ATCC 25922; CAMB, 18 h, 37 °C, n = 4
  MIC: >128 µg/mL
E. coli ATCC 25922; Table 6, CAMB
  MIC: >256 µg/mL
Canida albicans FH2173
  MIC: >128 µg/mL
[2]; CAMB, 18 h, 37 °C, n = 4
  MIC: >128 µg/mL
[3]
  MIC: >128 µg/mL
[4]; CAMB, 18 h, 37 °C, n = 4
  MIC: >128 µg/mL
[5]
  MIC: 16 µg/mL (≈ 3.73 µM)
[6]
  MIC: 32 µg/mL (≈ 7.46 µM)
[7]
  MIC: >128 µg/mL
[8]; CAMB, 18 h, 37 °C, n = 4
  MIC: >128 µg/mL
[9]; CAMB, 18 h, 37 °C, n = 4
  MIC: 16 µg/mL (≈ 3.73 µM)
[10]
  MIC: >128 µg/mL

## GFLKKVGKKLEGASDLTRDATIQTIAVAQAAANVAATAKQ-NH2 [EtCec3-NH2]
S. aureus ATCC 33592; ATCC 33592, 18 h
  MIC: >1024 µg/mL
E. coli RKI 131/08
  MIC: >1024 µg/mL
K. pneumoniae RKI 93/10
  MIC: >1024 µg/mL
A. baumannii RKI 19/09
  MIC: >1024 µg/mL
[2]; ATCC 19606, 18 h
  MIC: >1024 µg/mL
Escherichia coli D31
  MIC: 128 µg/mL
[4]; DSM 30104, 18 h
  MIC: >1024 µg/mL
[8]; ATCC 27853, 18 h
  MIC: >1024 µg/mL
[9]; ATCC 25923, 18 h
  MIC: >1024 µg/mL
HepG2 cells
  NOEC: > 1622 µg/mL
[11]
  IC50: > 30 µM

Reference: publication PMC7284870, “Antimicrobial Peptides from Rat-Tailed Maggots of the Drone Fly Eristalis tenax Show Potent Activity against Multidrug-Resistant Gram-Negative Bacteria” (Microorganisms, 2020)
